Results from a melting point compilation (Tetko et al.; mined from patent text by program, amines drawn as free bases though some values may be those of a salt).

Structure (SMILES) | melting point
COc1ccc(-c2nn(Cc3ccccc3)c(=O)cc2-c2ccc(OC)c(F)c2)cc1 | 110 to 112 °C
OCC(CO)(COCc1ccccc1)COCc1ccccc1 | 73 °C
CN(C)C=C(C#N)C(=O)c1nccs1 | 126 °C
CCCCC(CC)COC(=O)CSCc1cc(C(C)(C)C)c(O)c(C(C)(C)C)c1 (stereo not drawn) | 20 °C
CC1(C)N=C(c2ccccc2F)c2cc([N+](=O)[O-])cc(Br)c2NC1=O | 164 °C
COC(C(=O)O)c1ccc(OCc2ccccn2)cc1 (stereo not drawn) | 169 to 170 °C
COc1ccnc(Nc2nc(-c3ccncc3)cs2)c1 | 190 to 192 °C
O=C(Oc1ccccc1)N1c2ncccc2OCC1OP(=O)(Oc1ccccc1)Oc1ccccc1 (stereo not drawn) | 82 °C
O=Cc1ccc(-c2cccc3cncn23)cc1 | 144 to 146 °C
CNc1ncc2cc(-c3c(Cl)cccc3Cl)c(=O)n(C)c2n1 | 243 to 244 °C
Cc1ccccc1-c1c(NC(=O)C=Cc2ccc(O)c(O)c2)c(=O)oc2cc3c(cc12)CCC3 | 295 to 297 °C
CCCCCCCCCCC[C@@H]1CC(=O)CC(=O)O1 | 82 to 85 °C
Nc1cc(C(F)(F)F)ccc1S(=O)(=O)c1ccccc1 | 142 to 143 °C
CC(=O)c1c(C(C)C)nn2ccccc12 | 74 °C
Cc1nccn1CCN1CCC(Nc2nc3ccccc3n2Cc2ccc(F)cc2)CC1 | 170 °C
CC(C)Cn1c(CO)c(OCCCC(F)(F)F)c2cc(OCc3ccccc3)ccc2c1=O | 112 to 113 °C
CS(=O)(=O)On1nnc2ccccc21 | 88 to 90 °C
O=C(Nc1ccc(C(=O)N2CCO[C@H]3CCCC[C@@H]32)cc1)c1ccc(Cl)cc1Cl (relative stereo) | 227 to 230 °C
[N-]=[N+]=Nc1nc(-c2ccccc2)nc(-c2ccccc2)n1 | 115 to 117 °C
O=C(O)CCC(CNCC(CO)(NC(=O)OC1C2CC3CC(C2)CC1C3)C(=O)c1c[nH]c2ccccc12)c1ccccc1 (stereo not drawn) | 117 to 122 °C
CCN1CCNC1=C[N+](=O)[O-] | 110 to 111 °C

Structure (SMILES) | melting point
C=CCN(CC=C)CC(=O)N1c2ccccc2N(CCCC)C(=O)c2cnc(-c3ccccc3)nc21 | 137 to 138 °C
CCCC1Cc2c3c(c(C)c(C)c2C1=O)OC(C(=O)O)C3 (stereo not drawn) | 161 °C
CC(=O)N(C)Cc1ccc(OCc2ccc(F)cc2)cc1 | 82 to 83 °C
CC(=O)NCCc1cn(S(=O)(=O)c2ccc(C)cc2)c2ccc(O)cc12 | 173 to 174 °C
CN(CCCN)CCCNc1ccc2ncn3c4ccccc4c(=O)c1c23 | 97 to 99 °C
O=C(c1cccnc1)C1COCOC1 | 91 to 100 °C
CCOC(=O)Cc1nc2cc(Cl)ccc2o1 | 90 to 91 °C
COC(=O)CCSC(C)(C)C(NS(=O)(=O)c1ccc(Oc2ccc(F)cc2)cc1)C(=O)O (stereo not drawn) | 123 to 124 °C
C=C(C)C(=O)OCCOC(=O)c1ccc2c(c1)C(=O)N(OS(=O)(=O)c1ccc(C)cc1)C2=O | 113 °C
CC(C#Cc1ccc(Oc2ccc(Cc3ccc(F)cc3)cc2)o1)N(O)C(N)=O (stereo not drawn) | 145 to 147 °C
CC(C)CSc1cc(C(=O)O)cc(S(N)(=O)=O)c1Oc1ccccc1 | 193 to 194 °C
COc1ccc(-c2nnc3c4ccccc4c(OCCO)nn23)cc1 | 252 to 254 °C
O=c1c(-c2ccccc2)coc2cc(OCC3CO3)ccc12 (stereo not drawn) | 151 to 152 °C
CCOC(=O)CC[C@H](NC(=O)c1cc(CCCc2coc3nc(N)nc(N)c23)cs1)C(=O)OCC | 79 to 80 °C
C=C(C)N(C(=C)C)C(=O)C(C)Oc1cc(-c2ccccc2)nc2ccccc12 (stereo not drawn) | 110 °C
O=c1cccc(C(F)F)[nH]1 | 125 to 127 °C
CCc1cccc(C)c1CNc1cc(C(=O)NC)nc2c1nc(C)n2C | 236 to 238 °C
COc1ccc(-c2nn(Cc3ccc(F)cc3)c(=O)cc2-c2ccncc2)cc1 | 154 to 155 °C
COCCNC(N)=Nc1ccccc1N1CCCCC1 | 218 to 220 °C
CC(C)(C)c1cccc2c1OC(CNC(=O)OCc1ccccc1)C2 (stereo not drawn) | 73 to 76 °C
CCCn1c(=O)c(C=C(C#N)C#N)c2n(c1=O)CCS2 | 135 to 137 °C

Results, then the molecule that gave them:

melting point | Structure (SMILES)
116 to 117 °C | CCCS(=O)(=O)c1nc[nH]n1
49 °C | CCC1COC(c2ccc(C#N)c(F)c2)OC1 (stereo not drawn)
178 to 180 °C | CCN1CCC(NC(=O)c2ccc(NC(C)=O)cc2)N1CC (stereo not drawn)
245 to 247 °C | O=C(CC(=O)c1ccc(O)cc1O)c1ccc(OCc2ccccc2)c(OCc2ccccc2)c1
257 to 260 °C | O=C(O)Cc1ccc(NC(=O)c2ccccc2SSc2ccccc2C(=O)Nc2ccc(CC(=O)O)cc2)cc1
122 to 124 °C | CCc1cc(C(=O)Nc2ccccc2)on1
129 to 133 °C | Cc1ccc(S(C)(=O)=O)c(S(=O)(=O)NC(C)(C)C)c1
182 to 183 °C | CC12CCCC1C1CC=C3CC(O)CC(O)C3(C)C1CC2 (stereo not drawn)
184 to 187 °C | COc1c(Cl)ccc(-c2cc(N)c(Cl)c(C(=O)NOC(C)(C)C)n2)c1F
130 to 131 °C | Cc1cc2c(c(C)c1NC(=O)CC(C)(C)C)C(c1ccc(C(C)C)cc1)CO2 (stereo not drawn)
103 to 109 °C | C[C@@H](n1cnc2cc(N)ccc2c1=O)[C@](O)(Cn1cncn1)c1ccc(F)cc1F
223 to 226 °C | CCNc1nc(-c2ccc(NC(=O)NCc3ccc(N)nc3)cc2)ccc1C(=O)NC
148 to 150 °C | COc1ccc(OCC(O)CN2CCC(N3CCNC3=O)CC2)cc1 (stereo not drawn)
174 °C | COc1ccc(CN(C)CCCCc2ccc(NC(=O)c3cccc4c(=O)c5cccc([N+](=O)[O-])c5[nH]c34)cc2)cc1OC
155 °C | COC/C(=N/O)c1ccc(Sc2cc(F)cc(C3(OC)CCOCC3)c2)cc1
150 to 151 °C | COc1cc2c(cc1C(F)(F)F)N(C(=O)Nc1cc(-c3ccccc3)cc(-c3cccnc3)c1)CC2
147 to 148 °C | COc1ccc(CN2C(=O)C3CC(c4ccc(N)cc4)(C3)C2=O)cc1
234 to 235 °C | COC(=O)C(NS(=O)(=O)c1ccc(-c2ccc(NC(=O)c3cc4cc(OC)ccc4o3)cc2)cc1)C(C)C (stereo not drawn)
130 to 132 °C | COC1C(c2ccccc2)=C(c2ccc(S(C)(=O)=O)cc2)C1(C)C (stereo not drawn)

melting point | Structure (SMILES)
44.5 to 45.5 °C | CCCCCCOc1ccc(-c2cc(C=O)ccc2C=O)cc1
92 °C | CC(CN1CCN(c2cccc(C(F)(F)F)c2)CC1)C(O)c1ccc2c(c1)oc(=O)n2C (stereo not drawn)
114 to 119 °C | Cn1c(=O)c2c(ncn2CCCN2CCC(C(=O)c3ccc(F)cc3)CC2)n(C)c1=O
231 to 235 °C | Cc1c(-c2ccccc2)oc2cc(OCC3CO3)ccc2c1=O (stereo not drawn)
227 to 230 °C | CC(=O)c1cc(C(C)=O)c(O)cc1N
177 to 178 °C | CCN(Cc1cc(Cl)ccc1OCC1CC1)c1ccc(C(N)=O)nn1
148 to 149 °C | c1ccc(CSc2nnc(-c3ccc4c(c3)CCO4)o2)cc1
214 to 215 °C | CCOC(=O)Cn1cc(C(=O)NCCN(C)C)c2nc3c(C)cccc3cc2c1=O
98 to 100 °C | CCNC=C(C(=O)C=Cc1ccc(N(C)C)c(C)c1)C(=O)OC
> 300 °C | Cc1ccccc1NC(=O)Nc1ccc(N)cc1
61.7 °C | CCCCCCCCCc1cnc(-c2ccc(C(=O)OC)cc2)nc1
170 to 172 °C | O=C(O)C(NC(=O)C(F)(F)F)c1ccc(Cl)cc1 (stereo not drawn)
69 °C | CCc1cc2ccccc2c(=O)o1
120 to 122 °C | CCCCCCCN(CCCCCSc1nc2ccc([N+](=O)[O-])cc2[nH]1)C(=O)Nc1ccc(F)cc1F
220 to 221 °C | CC(C)Cc1ccc(-c2cc(C(=O)O)cc(-c3ccc(Cl)cc3)n2)cc1
185 °C | CN1CC(O)=C(C(=O)Nc2ccccn2)N(C)S1(=O)=O
155 to 156 °C | COc1ccc([N+](=O)[O-])c2c1oc1ccccc12
92 to 94 °C | CC(C)(C)OC(=O)[C@H](CC(=O)c1ccc2oc3ccccc3c2c1)NC(=O)C(F)(F)F
247 to 249 °C | CC1(C)CCC(C)(C)c2c1ccc(C=Nc1ccc(C(N)=O)cc1)c2N

melting point | Structure (SMILES)
174 °C | COC(=O)c1cc(C(=O)c2c(C)c(OC)c3c(OCc4ccccc4)cccn23)ccc1N
146 to 148 °C | CC(=O)N(C)C1CCC(O)(c2ccc(Cl)c(Cl)c2)c2ccccc21 (stereo not drawn)
155 to 159 °C | CCC(=O)Oc1ccc(N=c2scc(-c3ccc(Cl)c(S(=O)(=O)N(C)C)c3)n2C)cc1
196 to 197 °C | CC(C)=NOCc1nc2c(N)nc3cc(-c4ccccc4)cnc3c2n1CC(C)C
261 °C | CC(C)(C)c1cc(-c2nnc(N)s2)cc(C(C)(C)C)c1O
154 to 155 °C | CCOC(=O)c1c(Nc2ccncc2)c2ccc(Cl)cc2n1C
152 °C | O=C(O)CSCC(O)CN1CCCCC1 (stereo not drawn)
172 °C | CCOC(=O)C1CN(C2CC2)c2nc3cc(F)c(F)cc3cc2C1=O (stereo not drawn)
219 to 221 °C | Clc1c(CBr)ccc2c(Cl)c(CBr)ccc12
113 °C | CCOC(=O)c1c(O)c2cc(C)ccc2n(Cc2ccccc2)c1=O
231 to 234 °C | O=C(Nc1ccc(C(=O)N2Cc3cccn3Cc3ccccc32)cc1)c1cc(Cl)cc(Cl)c1Cl
128 to 130 °C | Cn1c(C(F)(F)F)cc(=O)n(Cc2cc(Cl)cc(Cl)c2Cl)c1=O
123 to 125 °C | FC(F)(F)c1ccc(-c2cc(C(F)(F)F)c(Br)nn2)cc1
140 to 141 °C | CC(=O)n1cccc(O)c1=O
155 to 159 °C | Cc1ccc(S(=O)(=O)NC(=O)N2C(=O)C(C)N2C(c2ccccc2)c2ccccc2)cc1 (stereo not drawn)
139 to 142 °C | CCC(=O)Nc1c(C#N)cnn1-c1nc(NCc2ccccc2)c(C(F)(F)F)cc1Cl
172 to 174 °C | CC(C)(C)CNCc1nc(-c2ccc3c(c2)Nc2ccccc2S3)cs1
270 °C | CC(=O)c1cccc(NC(=O)c2cc(C(N)=O)cc(C(=O)N(c3cccc(C(C)=O)c3)c3cccc(C(C)=O)c3)c2)c1
